Measurements as given in publication PMC9505670, “The Effect of Short-Chain Fatty Acids on Growth of Cryptosporidium parvum In Vitro” (Microorganisms, 2022).
“And” between values parts separate entries of the source, which are not always exact repeats. Equal values may be shown once. Read-outs that look alike come from different tables or passages of the source. Values belong to the molecule of their own block, whether it stands above or below them.

Assays:
T. gondii [1] = system: T. gondii; set-up: method as in PMID 34339265; settings: treatment of mice; cited from earlier work
T. gondii [2] = system: T. gondii; set-up: method as in PMID 17626366; settings: cited from earlier work; for IC50: cell monolayers infected and then treated
C. parvum [3] = assay: C. parvum in vitro culture assay, intracellular stages in infected HCT-8 cells; assay type: cell-based, Cryptosporidium parvum IOWA isolate
Method: Growth of C. parvum in cell culture was performed as described previously. Briefly, purified C. parvum IOWA isolate oocysts were washed with phosphate-buffered saline (PBS, pH 7.4) to remove the storage buffer (2.5% w/v aqueous potassium dichromate) and resuspended in RPMI 1640 media supplemented with 0.75% sodium taurocholate and incubated for 30 min at 37 °C. The excystation mixture containing oocysts, oocyst shells and free sporozoites was diluted with RPMI 1640 with 10% fetal bovine serum (FBS). Approximately 1 × 10^5 oocysts and sporozoites were dispensed per well in 24-well plates containing confluent HCT-8 cells. Host cells inoculated with the parasite mixture were incubated for 3 h and subsequently washed with PBS to remove free parasites (those that had not invaded host cells). PBS was replaced with fresh RPMI 1640 with 10% FBS with or without test compounds and the cultures were incubated for 48 h. In addition, RPMI 1640 with 10% FBS supplemented with DMSO (same concentration used with test compounds) was evaluated to determine the effect of inhibition or toxicity on cultures. Culture wells were washed with PBS, and then PBS was replaced by Bouin’s solution. After fixation of cultures, the Bouin solution was removed and decolorized with 70% ethanol, followed by 5 washes with PBS. Culture wells were labeled with an anti-C. parvum fluorescein-labeled monoclonal antibody (C3C3-FITC) and parasites were enumerated via quantitative fluorescent microscopy at 400× magnification using an Olympus IX73 microscope (Waltham, MA, USA). Twenty-four sequential, non-overlapping fields per well were captured as digital images, constituting a representative subsample of the entire well. The parasites were quantified using OpenCFU (https://sourceforge.net/projects/opencfu/, accessed on 4 October 2014) software based on the size of the fluorescing parasites and the parasite-specific fluorescent signal. Data were obtained from four well replicates, and each experiment was repeated at least twice. Dose–effect curves and the median effective concentration (EC50) of each compound alone or in combination was determined using CompuSyn (ComboSyn, Inc., Paramus, NJ, USA, ver. 2.1 for Microsoft Windows) computer software. The EC50 was defined as the concentration required for reducing the number of parasites by 50% compared with the untreated control. […]

C. parvum sporozoites = assay: SCFA treatment of live sporozoites before inoculation onto HCT-8 cells; assay type: cell-based, Cryptosporidium parvum; settings: for inhibition of sporozoites: 45 min incubation with sporozoites prior to infection of host cell monolayers; for EC50: sporozoites incubated 45 min with SCFA, washed, then 48 h development on HCT-8 cells, read-out: EC50 for Sporozoite Stages
Method: Sporozoites were prepared according to You et al., 1998 [15]. Briefly, after excystation, the C. parvum oocysts and sporozoite mixture was filtered through a […] filter using a syringe and centrifuged, washed and counted. Isolated sporozoites were incubated with different SCFAs for 45 min, then washed several times to remove SCFAs before plating on cell monolayers. Sporozoites were then inoculated onto HCT-8 cells and incubated for 3 h. Monolayers were then washed, media was replaced and parasites were allowed to develop for 48 h, as described in the culture assay above. Cells were fixed and labeled and parasitic stages were quantitated as described above.

E. invadens = system: E. invadens; set-up: method as in PMID 15659070; settings: incubated individually; cited from earlier work
HCT-8 cells = assay: Compound toxicity for host cell cultures (CellTiter 96 tetrazolium assay); assay type: cell-based, human
Method: (§1) Test compound toxicity for HCT-8 cell cultures was assessed using the CellTiter 96 Non-Radioactive Cell Proliferation/Cytotoxicity assay as recommended by the manufacturer (Promega Corporation, Madison, WI, USA).

autophagy in HCT-8 cells = assay: Autophagy assay (autophagosome detection reagent); assay type: cell-based, human; settings: 24 h
Method: In vitro assays were performed as described above. Briefly, HCT-8 cells were infected with C. parvum and/or treated with 1 mM butyrate for 24 h, after which the cells were analyzed for […]. Control wells (uninfected, untreated) were compared with treated wells and infected wells. An autophagy assay was used following the recommendation of the manufacturer (Sigma-Aldrich, St. Louis, MO, USA). The medium was removed from the wells and 100 µL of the proprietary autophagosome detection reagent was added directly to each well. The plate was then incubated for 45 min at 37 °C and 5% CO2. The detection reagent was then removed, and each well was washed 3 times with the provided wash buffer before measuring fluorescence (λex = 360/λem = 520 nm) with a microplate reader. The intensity of the fluorescence correlates directly with the amount of autophagy observed.

apoptosis in HCT-8 cells = assay: Apoptosis assay (Caspase-Glo 3/7); assay type: cell-based, human; settings: 24 h
Method: In vitro assays were performed as described above. Briefly, HCT-8 cells were infected with C. parvum and/or treated with 1 mM butyrate for 24 h, after which the cells were analyzed for percent apoptosis. Control wells (uninfected, untreated) were compared with treated wells and infected wells. Apoptosis in HCT-8 cell cultures was measured using a commercially available assay (Promega Corporation, Madison, WI, USA). Caspase-Glo3/7 reagent was added directly to the assay wells.

[4] = system: cytokine production in HCT-8 cells; assay: Cytokine production, Luminex 48-plex, HCT-8 supernatants; assay type: cell-based, human; settings: for majority of cytokines in the 48-plex assay (including IL-6 and TNF-α): 48 h treatment, alone or in combination with C. parvum infection
Method: For the cytokine assay, the in vitro infection assay was performed as described above. Supernatants from 24-well plates were collected and stored at –80 °C. Luminex multiplex assays were completed by Eve Technologies using the Human Cytokine discovery Array 48-plex Panel (Calgary, AB, Canada).

CpHDAC3 = settings: recombinant protein; cited from earlier work
C. parvum [5] = system: C. parvum; set-up: method as in PMID 24273180; settings: cited from earlier work
C. parvum [6] = system: C. parvum; set-up: method as in PMID 24273180; settings: cited from earlier work; remark: listed apart in the source
Cryptosporidium = system: Cryptosporidium; set-up: method as in PMID 8917558; settings: previously reported; cited from earlier work
[7] = Compound toxicity for host cell cultures (CellTiter 96 tetrazolium assay); assay type: cell-based, human; settings: human; HDAC inhibitors; 48 h; read-out: Cytotoxicity Concentration (CC50) for HCT-8 Host Cells
Method: as §1

[8] = Cryptosporidium parvum, HCT-8, 48 h, HCT-8 cells infected with C. parvum, 48 h treatment, read-out: EC50 for Intracellular Stages
[9] = HCT-8 cells infected with C. parvum, 48 h treatment, read-out: EC50 for Intracellular Stages
[10] = C. parvum infected then 1 mM butyrate, 48 h, compared with butyrate alone or infection alone
[11] = HDAC inhibitors, infected HCT-8 cells, 48 h, read-out: EC50 of Intracellular Stages

- EC50 (C. parvum [3]; [8]): 10 mM
- EC50 (C. parvum sporozoites; Cryptosporidium parvum): > 100 mM
SMILES: CCCC(CCC)C(=O)O [Valproate, reference compound]
- number of T. gondii cysts in the brains of mice (T. gondii [1]): reduce the number of T. gondii cysts
- IC50 (T. gondii [2]): 1 to 5 mM
- inhibition of T. gondii in vitro (T. gondii [2]): inhibit
- inhibition of sporozoites (C. parvum sporozoites): no inhibition

- EC50 (C. parvum [3]; [9]): 4 mM
- EC50 (C. parvum sporozoites): > 100 mM
SMILES: CC(=O)O [Acetate]
- concentration range inhibiting encystment (E. invadens): 6 to 22 mM
- inhibition of sporozoites (C. parvum sporozoites): no inhibition
- CC50 (HCT-8 cells): > 200 mM

SMILES: CCCC(=O)O [Butyrate]
- concentration range inhibiting encystment (E. invadens): 6 to 22 mM
- autophagy (autophagy in HCT-8 cells; 1 mM alone, uninfected cells): no difference
- autophagy (autophagy in HCT-8 cells; cells infected with C. parvum and treated, 1 mM): significant decrease in autophagy
- apoptosis (apoptosis in HCT-8 cells; 1.0 mM alone, compared to control, p < 0.05): significantly higher percentage of apoptosis
- apoptosis (apoptosis in HCT-8 cells; C. parvum infection plus treatment 3 h after infection, 1 mM): additional increase in apoptosis
- IC50 (T. gondii [2]): 1 to 5 mM
- inhibition of T. gondii in vitro (T. gondii [2]): inhibit
- majority of cytokines in the 48-plex assay (including IL-6 and TNF-α) [4]: not significantly altered
- IL-1α [4, 10]: significant increase
- IL-8 [4, 10]: significant increase
- EC50 (C. parvum [3]; [8]): 4 to 10 mM
- EC50 (C. parvum [3]; [9]): 3 to 8 mM
- inhibition of CpHDAC3 (CpHDAC3): did not inhibit
- inhibition of sporozoites (C. parvum sporozoites): inhibited growth
- EC50 (C. parvum sporozoites; Cryptosporidium parvum): 2 mM

SMILES: O=C(CCCCCCC(=O)Nc1ccccc1)NO [vorinostat]
- efficacy in a mouse model (C. parvum [5]): efficacy
- in vitro activity (C. parvum [6]): in vitro activity

SMILES: CCC(=O)CCCCC[C@@H]1NC(=O)[C@H]2CCCCN2C(=O)[C@H]([C@@H](C)CC)NC(=O)[C@H](Cc2cn(OC)c3ccccc23)NC1=O [Apicidin]
- anti-cryptosporidial activity at concentration (Cryptosporidium): 30 ng/mL
- EC50 (C. parvum [3]; Cryptosporidium parvum, HCT-8, 48 h, read-out: EC50 of Intracellular Stages, HDAC inhibitors, infected HCT-8 cells, 48 h): 2e-05 mM
- EC50 (C. parvum [3]; read-out: EC50 of Intracellular Stages, HDAC inhibitors, infected HCT-8 cells, 48 h): 4e-05 mM
- CC50 at 48 h [7]: 150 µM

- EC50 (C. parvum [3]; [9]): 3 to 4 mM
- EC50 (C. parvum sporozoites): > 100 mM
SMILES: CCC(=O)O [Propionate]
- concentration range inhibiting encystment (E. invadens): 6 to 22 mM
- inhibition of sporozoites (C. parvum sporozoites): no inhibition

SMILES: COc1ccc(Cn2ccc3ccc(C(=O)NO)cc32)cc1 [PCI 34051]
- majority of cytokines in the 48-plex assay (including IL-6 and TNF-α) [4]: did not increase cytokine expression
- majority of cytokines in the 48-plex assay (including IL-6 and TNF-α) ([4]; listed as PCI 34,051): not significantly altered
- EC50 (C. parvum [3]; [11]): 1e-06 mM and 1e-06 to 7e-06 mM
- toxicity (HCT-8 cells; below 200 nM): no toxicity

SMILES: CC(/C=C/C(=O)NO)=C\[C@@H](C)C(=O)c1ccc(N(C)C)cc1 [Trichostatin A]
- anti-cryptosporidial activity at concentration (Cryptosporidium): 30 ng/mL
- EC50 (C. parvum [3]; [11]): 2e-05 mM
- CC50 (HCT-8 cells; HDAC inhibitors, 48 h, read-out: Cytotoxicity Concentration (CC50) for HCT-8 Host Cells): > 0.2 mM

SMILES: O=C(O)CCCc1ccccc1 [4-phenylbuyrate]
- inhibition of T. gondii in vitro (T. gondii [2]): inhibit
